Experimental data published in ChEMBL document CHEMBL1125977, “2-aryl-1,2-dihydro-6,7-dimethoxyquinazoline-3-oxides with positive inotropic activity” (1991).

Columns and labels:
Canis familiaris [1] = test: Inotropic activity of compound was evaluated as % change in mean arterial blood pressure at a dose of 1.87 (mg/Kg) in anesthetized dog; assay type: functional, Canis lupus familiaris
Canis familiaris [2] = test: Inotropic activity of compound was evaluated as % increase in cardiac force at a dose of 1.87 (mg/Kg) in anesthetized dog; assay type: functional, Canis lupus familiaris, Heart
Canis familiaris [3] = test: Inotropic activity of compound was evaluated as % change in heart rate at a dose of 1.87 (mg/Kg) in anesthetized dog; assay type: functional, Canis lupus familiaris
Canis familiaris [4] = test: Inotropic activity of compound was evaluated as % increase in cardiac force at a dose of 10 (mg/Kg, intraduodenally) in anesthetized dog; assay type: functional, Canis lupus familiaris, Heart
Canis familiaris [5] = test: Inotropic activity of compound was evaluated as % increase in cardiac force at a dose of 8.75 (mg/Kg) in anesthetized dog; assay type: functional, Canis lupus familiaris, Heart
Canis familiaris [6] = test: Inotropic activity of compound was evaluated as % change in mean arterial blood pressure at a dose of 10 (mg/Kg, intraduodenally) in anesthetized dog; assay type: functional, Canis lupus familiaris
Canis familiaris [7] = test: Inotropic activity of compound was evaluated as % change in mean arterial blood pressure at a dose of 8.75 (mg/Kg) in anesthetized dog; assay type: functional, Canis lupus familiaris
Canis familiaris [8] = test: Inotropic activity of compound was evaluated as % change in heart rate at a dose of 8.75 (mg/Kg) in anesthetized dog; assay type: functional, Canis lupus familiaris
Canis familiaris [9] = test: Inotropic activity of compound was evaluated as % change in heart rate at a dose of 10 (mg/Kg, intraduodenally) in anesthetized dog; assay type: functional, Canis lupus familiaris
Canis familiaris [10] = test: Inotropic activity of compound was evaluated as % change in mean arterial blood pressure at a dose of 8.28 (mg/Kg) in anesthetized dog; assay type: functional, Canis lupus familiaris
Canis familiaris [11] = test: Inotropic activity of compound was evaluated as % change in heart rate at a dose of 8.28 (mg/Kg) in anesthetized dog; assay type: functional, Canis lupus familiaris
Canis familiaris [12] = test: Inotropic activity of compound was evaluated as % increase in cardiac force at a dose of 8.28 (mg/Kg) in anesthetized dog; assay type: functional, Canis lupus familiaris, Heart

Row | Compound | MABP (Canis familiaris [1]) | CF (Canis familiaris [2]) | HR (Canis familiaris [3]) | CF (Canis familiaris [5]) | MABP (Canis familiaris [7]) | HR (Canis familiaris [8]) | also measured
1 | COc1ccc(C2Nc3cc(OC)c(OC)cc3C(C)=[N+]2[O-])cc1 (stereo not given) | -6% | 29% | 8% |  |  |  | 
2 | COc1cc2c(cc1OC)C(C)=[N+]([O-])C(c1ccccc1)N2 (stereo not given) | -3% | 42% | 12% | 137% | -28% | 47% | CF (Canis familiaris [4]): 157%; MABP (Canis familiaris [6]): -15%; HR (Canis familiaris [9]): 37%
3 | COc1cc2c(cc1OC)C(C)=[N+]([O-])C(c1ccccn1)N2 (stereo not given) |  |  |  | 45% | 0% | 16% | 
4 | COc1cc2c(cc1OC)C(C)=[N+]([O-])C(c1ccc(C)cc1)N2 (stereo not given) | -6% | 45% | 10% |  |  |  | 
5 | COc1cc2c(cc1OC)C(C)=[N+]([O-])C(c1ccco1)N2 (stereo not given) |  |  |  | 123% | -14% | 20% | 
6 | COc1cc2c(cc1OC)C(C)=[N+]([O-])C(c1cc3c(cc1[N+](=O)[O-])OCO3)N2 (stereo not given) |  |  |  | 17% | 0% | 4% | 
7 | COc1cc2nc(-c3ccccc3)nc(C)c2cc1OC | -20% | -14% | -4% |  |  |  | 
8 | COc1cc2nc(-c3ccccc3)[n+]([O-])c(C)c2cc1OC |  |  |  | 29% | 0% | 5% | 
9 | COc1cc2c(cc1OC)C(C)=[N+]([O-])C(c1ccncc1)N2 (stereo not given) |  |  |  | 29% | 0% | 8% | 
10 | COc1cc2c(cc1OC)C(C)=[N+]([O-])C(c1ccc3c(c1)OCO3)N2 (stereo not given) |  |  |  | 124% | -38% | 39% | 
11 | COc1cc2c(cc1OC)C(C)=[N+]([O-])C(c1cccc3c1OCO3)N2 (stereo not given) |  |  |  |  |  |  | MABP (Canis familiaris [10]): 10%; HR (Canis familiaris [11]): 13%; CF (Canis familiaris [12]): 45%
12 | COc1cc2c(cc1OC)C(C)=[N+]([O-])C(c1cccs1)N2 (stereo not given) |  |  |  | 75% | -31% | 21% | 
13 | COc1cc2c(cc1OC)C(C)=[N+]([O-])C(c1c(F)c(F)c(F)c(F)c1F)N2 (stereo not given) | 2% | 33% | 8% |  |  |  | 
